Values quoted from earlier work in US20220387447A1, “FORMULATIONS OF TESTOSTERONE AND METHODS OF TREATMENT THEREWITH” (BOARD OF REGENTS, THE UNIVERSITY OF TEXAS SYSTEM, priority 2016, published 2022).

Assays:
women = conditions: single-dose administration, sublingually
[1] = intranasal administration; baseline mean 2.5 pmol/L

CC12CCC(=O)C=C1CCC1C2CCC2(C)C(O)CCC12 (centres unmarked) [testosterone, Testosterone]
subjective sexual desire, genital responsiveness, and genital arousal (women): increase
maximum testosterone concentration (mean) [1]: 168.2 pmol/L
